Test results from patent US20240124460A1, “METHODS AND COMPOSITIONS FOR TARGETED PROTEIN DEGRADATION” (Ranok Therapeutics (Hangzhou) Co. Ltd., priority 2020, published 2024).
Read-outs that look alike come from different tables or passages of the source.

Tests used:
[1] = biological target: T1, HSP90α protein (Homo sapiens, UniProt P07900); test: HSP90α-binding FP (BODIPY) assay; conditions: FP competition with BODIPY-labeled RNK04010
T1 construct: purchased BPS Bioscience #50298
Method: Binding of test compounds to HSP90α protein was measured by fluorescent polarization (FP) using the HSP90α (N-terminal) Assay Kit (BPS Bioscience, #50298), following the manufacturer's instructions, except as noted. Fluorescently labeled HSP90-binding compounds, either the provided FITC-geldanamycin (5 nM final concentration) or RNK04010, a triazolone-based HSP90 binding small molecule labeled with BODIPY through a piperazine-phenyl linker (5 nM final concentration) were employed. A 2.5-fold serial dilution of each test compound ranging from 20 μM to 5.2 nM was assayed for binding to HSP90α. After the final step of adding HSP90α protein to each assay well, plates were mixed by brief shaking, incubated at 25° C. for 120 min for FITC-geldanamycin or 300 min for RNK04010, and fluorescence was measured using a PerkinElmer EnVision Plate Reader.

[2] = tested on: MV-4-11 human acute myeloid leukemia; test: MV-4-11 CCK-8 proliferation assay; type: cell-based; conditions: MV-4-11 cells, 72 hr
How it was run: (§1)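 Cells grown per ATCC recommendations were treated with 3-fold serial compound dilutions from 20 μM to 1.02 nM. CCK-8 absorbance was converted to % inhibition against DMSO-treated cells, with cell-free medium containing DMSO as the blank.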

[3] = tested on: U-87 MG human glioblastoma; test: U87 MG CCK-8 proliferation assay; type: cell-based; conditions: U-87 MG cells, read-out: U87MG CCK-8
How it was run: as §1

Row | IC50 [1] [nM] | EC50 ([2]; Homo sapiens, MV4-11) [nM] | EC50 ([3]; Homo sapiens, U-87 MG, 72 h) [nM] | Molecule | EC50 [2] [nM] | EC50 ([3]; 72 hr) [nM]
1 | > 1000 | 100 to 1000 | – | CCOc1cc(N2CCC(C(=O)N3CCC(CN4CCN(CCOc5ccc(Nc6cc(-n7nc(C(F)(F)F)c8c7CC(C)(C)CC8=O)ccc6C(N)=O)cc5)CC4)CC3)CC2)ccc1Nc1ncc2c(n1)N(S(C)(=O)=O)c1ccccc1C(=O)N2C [Compound 138, 4-(6,6-dimethyl-4-oxo-3-(trifluoromethyl)-4,5,6,7-tetrahydro-1H-indazol-1-yl)-2-((4-(2-(4-((1-(1-(3-ethoxy-4-((5-methyl-11-(methylsulfonyl)-6-oxo-6,11-dihydro-5H-benzo[e]pyrimido[5,4-b][1,4]diazepin-2-yl)amino)phenyl)piperidine-4-carbonyl)piperidin-4-yl)methyl)piperazin-1-yl)ethoxy)phenyl)amino)benzamide] | – | –
2 | > 1000 | 100 to 1000 | > 1000 | CCOc1cc(N2CCC(C(=O)NCCCNC(=O)O[C@H]3CC[C@H](Nc4cc(-n5nc(C(F)(F)F)c6c5CC(C)(C)CC6=O)ccc4C(N)=O)CC3)CC2)ccc1Nc1ncc2c(n1)N(S(C)(=O)=O)c1ccccc1C(=O)N2C [Compound 095, (1R,4R)-4-((2-carbamoyl-5-(6,6-dimethyl-4-oxo-3-(trifluoromethyl)-4,5,6,7-tetrahydro-1H-indazol-1-yl)phenyl)amino)cyclohexyl (3-(1-(3-ethoxy-4-((5-methyl-11-(methylsulfonyl)-6-oxo-6,11-dihydro-5H-benzo[e]pyrimido[5,4-b][1,4]diazepin-2-yl)amino)phenyl)piperidine-4-carboxamido)propyl)carbamate] | – | –
3 | > 1000 | 100 to 1000 | > 1000 | CCOc1cc(N2CCC(C(=O)N3CCC(CN4CCN(C(=O)CNC(=O)O[C@H]5CC[C@H](Nc6cc(-n7nc(C(F)(F)F)c8c7CC(C)(C)CC8=O)ccc6C(N)=O)CC5)CC4)CC3)CC2)ccc1Nc1ncc2c(n1)N(C)c1ccccc1C(=O)N2C [Compound 122, (1R,4R)-4-((2-carbamoyl-5-(6,6-dimethyl-4-oxo-3-(trifluoromethyl)-4,5,6,7-tetrahydro-1H-indazol-1-yl)phenyl)amino)cyclohexyl (2-(4-((1-(1-(4-((5,11-dimethyl-6-oxo-6,11-dihydro-5H-benzo[e]pyrimido[5,4-b][1,4]diazepin-2-yl)amino)-3-ethoxyphenyl)piperidine-4-carbonyl)piperidin-4-yl)methyl)piperazin-1-yl)-2-oxoethyl)carbamate] | – | –
4 | > 1000 | 100 to 1000 | – | CCOc1cc(N2CCC(C(=O)NCCOCCOCCOc3ccc(Nc4cc(-n5nc(C(F)(F)F)c6c5CC(C)(C)CC6=O)ccc4C(N)=O)cc3)CC2)ccc1Nc1ncc2c(n1)N(S(C)(=O)=O)c1ccccc1C(=O)N2C [Compound 139, N-(2-(2-(2-(4-((2-carbamoyl-5-(6,6-dimethyl-4-oxo-3-(trifluoromethyl)-4,5,6,7-tetrahydro-1H-indazol-1-yl)phenyl)amino)phenoxy)ethoxy)ethoxy)ethyl)-1-(3-ethoxy-4-((5-methyl-11-(methylsulfonyl)-6-oxo-6,11-dihydro-5H-benzo[e]pyrimido[5,4-b][1,4]diazepin-2-yl)amino)phenyl)piperidine-4-carboxamide] | – | –
5 | > 1000 | 100 to 1000 | – | CCOc1cc(N2CCC(C(=O)N3CCC(CN4CCC(COc5ccc(Nc6cc(-n7nc(C(F)(F)F)c8c7CC(C)(C)CC8=O)ccc6C(N)=O)cc5)CC4)CC3)CC2)ccc1Nc1ncc2c(n1)N(S(C)(=O)=O)c1ccccc1C(=O)N2C [Compound 137, 4-(6,6-dimethyl-4-oxo-3-(trifluoromethyl)-4,5,6,7-tetrahydro-1H-indazol-1-yl)-2-((4-((1-((1-(1-(3-ethoxy-4-((5-methyl-11-(methylsulfonyl)-6-oxo-6,11-dihydro-5H-benzo[e]pyrimido[5,4-b][1,4]diazepin-2-yl)amino)phenyl)piperidine-4-carbonyl)piperidin-4-yl)methyl)piperidin-4yl)methoxy)phenyl)amino)benzamide] | – | –
6 | > 1000 | 100 to 1000 | – | CCOc1cc(N2CCC(C(=O)NCCOCCOCCOCCOc3ccc(Nc4cc(-n5nc(C(F)(F)F)c6c5CC(C)(C)CC6=O)ccc4C(N)=O)cc3)CC2)ccc1Nc1ncc2c(n1)N(S(C)(=O)=O)c1ccccc1C(=O)N2C [Compound 140, N-(2-(2-(2-(2-(4-((2-carbamoyl-5-(6,6-dimethyl-4-oxo-3-(trifluoromethyl)-4,5,6,7-tetrahydro-1H-indazol-1-yl)phenyl)amino)phenoxy)ethoxy)ethoxy)ethoxy)ethyl)-1-(3-ethoxy-4-((5-methyl-11-(methylsulfonyl)-6-oxo-6,11-dihydro-5H-benzo[e]pyrimido[5,4-b][1,4]diazepin-2-yl)amino)phenyl)piperidine-4-carboxamide] | – | –
7 | 100 to 1000 | < 100 | – | CCOc1cc(N2CCC(C(=O)N3CCC(CN4CCN(Cc5ccc(-n6c(C(=O)NC(C)C(F)(F)F)nnc6-c6cc(CC)c(O)cc6O)cc5)CC4)CC3)CC2)ccc1Nc1ncc2c(n1)N(S(C)(=O)=O)c1ccccc1C(=O)N2C (stereo not shown) [Compound 107, 4-(4-((4-((1-(1-(3-ethoxy-4-((5-methyl-11-(methylsulfonyl)-6-oxo-6,11-dihydro-5H-benzo[e]pyrimido[5,4-b][1,4]diazepin-2-yl)amino)phenyl)piperidine-4-carbonyl)piperidin-4-yl)methyl)piperazin-1-yl)methyl)phenyl)-5-(5-ethyl-2,4-dihydroxyphenyl)-N-(1,1,1-trifluoropropan-2-yl)-4H-1,2,4-triazole-3-carboxamide] | – | –

Further lines, the molecule ahead of its results:

Row | Molecule | IC50 [1] [nM] | EC50 ([2]; Homo sapiens, MV4-11) [nM] | EC50 ([3]; Homo sapiens, U-87 MG, 72 h) [nM] | EC50 [2] [nM] | EC50 ([3]; 72 hr) [nM]
8 | CCOc1cc(N2CCC(C(=O)N[C@H](C)c3ccc(CN4CCC(Cc5ccc(-n6c(O)nnc6-c6cc(C(C)C)c(O)cc6O)cc5)CC4)cc3)CC2)ccc1Nc1ncc2c(n1)N(S(C)(=O)=O)c1ccccc1C(=O)N2C [Compound 077, (R)—N-(1-(4-((4-(4-(3-(2,4-dihydroxy-5-isopropylphenyl)-5-hydroxy-4H-1,2,4-triazol-4-yl)benzyl)piperidin-1-yl)methyl)phenyl)ethyl)-1-(3-ethoxy-4-((5-methyl-11-(methylsulfonyl)-6-oxo-6,11-dihydro-5H-benzo[e]pyrimido[5,4-b][1,4]diazepin-2-yl)amino)phenyl)piperidine-4-carboxamide] | 100 to 1000 | < 100 | 100 to 1000 | – | –
9 | CCOc1cc(N2CCC(C(=O)N3CCC(CN4CCN(Cc5ccc(-n6c(C(N)=O)nnc6-c6cc(CC)c(O)cc6O)cc5)CC4)CC3)CC2)ccc1Nc1ncc2c(n1)N(S(C)(=O)=O)c1ccccc1C(=O)N2C [Compound 063, 4-(4-((4-((1-(1-(3-ethoxy-4-((5-methyl-11-(methylsulfonyl)-6-oxo-6,11-dihydro-5H-benzo[e]pyrimido[5,4-b][1,4]diazepin-2-yl)amino)phenyl)piperidine-4-carbonyl)piperidin-4-yl)methyl)piperazin-1-yl)methyl)phenyl)-5-(5-ethyl-2,4-dihydroxyphenyl)-4H-1,2,4-triazole-3-carboxamide] | < 100 | < 100 | < 100 | – | –
10 | CCOc1cc(N2CCC(C(=O)N3CCN(Cc4ccc(-n5c(O)nnc5-c5cc(C)c(O)cc5O)cc4)CC3)CC2)ccc1Nc1ncc2c(n1)N(S(C)(=O)=O)c1ccccc1C(=O)N2C [Compound 085, 2-((4-(4-(4-(4-(3-(2,4-dihydroxy-5-methylphenyl)-5-hydroxy-4H-1,2,4-triazol-4-yl)benzyl)piperazine-1-carbonyl)piperidin-1-yl)-2-ethoxyphenyl)amino)-5-methyl-11-(methylsulfonyl)-5,11-dihydro-6H-benzo[e]pyrimido[5,4-b][1,4]diazepin-6-one] | 100 to 1000 | < 100 | 100 to 1000 | – | –
11 | (1R,4R)-4-((2-carbamoyl-5-(6,6-dimethyl-4-oxo-3-(trifluoromethyl)-4,5,6,7-tetrahydro-1H-indazol-1-yl)phenyl)amino)cyclohexyl 4-(1-(4-((5,11-dimethyl-6-oxo-6,11-dihydro-5H-benzo[e]pyrimido[5,4-b][1,4]diazepin-2-yl)amino)-3-ethoxyphenyl)piperidine-4-carbonyl)piperazine-1-carboxylate [Compound 104] | > 1000 | – | – | > 1000 | > 1000
12 | CCOc1cc(N2CCC(C(=O)NCc3ccc(-n4c(O)nnc4-c4cc(CC)c(O)cc4O)cc3F)CC2)ccc1Nc1ncc2c(n1)N(S(C)(=O)=O)c1ccccc1C(=O)N2C [Compound 088, 1-(3-ethoxy-4-((5-methyl-11-(methylsulfonyl)-6-oxo-6,11-dihydro-5H-benzo[e]pyrimido[5,4-b][1,4]diazepin-2-yl)amino)phenyl)-N-(4-(3-(5-ethyl-2,4-dihydroxyphenyl)-5-hydroxy-4H-1,2,4-triazol-4-yl)-2-fluorobenzyl)piperidine-4-carboxamide] | 100 to 1000 | 100 to 1000 | > 1000 | – | –
13 | CCOc1cc(N2CCC(C(=O)N3CCN(Cc4ccc(-n5c(O)nnc5-c5cc(C)c(O)cc5O)cc4)CC3)CC2)ccc1Nc1ncc2c(n1)N(C)c1ccccc1C(=O)N2C [Compound 048, 2-((4-(4-(4-(4-(3-(2,4-dihydroxy-5-methylphenyl)-5-hydroxy-4H-1,2,4-triazol-4-yl)benzyl)piperazine-1-carbonyl)piperidin-1-yl)-2-ethoxyphenyl)amino)-5,11-dimethyl-5,11-dihydro-6H-benzo[e]pyrimido[5,4-b][1,4]diazepin-6-one] | 100 to 1000 | < 100 | 100 to 1000 | – | –
